{"source": "patent US4795639A", "about": "“Potentiating formulations” (priority 1971, dated 1989)", "key": {"E. acervulina": {"system": "E. acervulina", "assay": "coccidiosis screening test in chicks, E. acervulina", "assay_type": "in vivo", "procedure": "(§1) \"Screening tests\" were performed to establish the effectiveness of the compounds of formula (I) both alone and in combination with a competitor and or an inhibitor and to determine the most useful levels of relative concentrations of each component in combatting or suppressing coccidiosis.\nGroups of Ranger cockerels, housed in small, heated cages with wire floors situated in enironmentally controlled isolation rooms, were infected orally with sporulated oocysts of the Eimeria spp such as E. tenella or E. acervulina. The appropriate test compound(s), (DMHP, sulphaquinoxaline (SQX) or diaveridine (DV) or any combination of these) were incorporated in a small quantity of specially formulated laboratory ration deficient in Vitamin K (`L.D.4 mash`), as a 1/10 pre-mix, which was then mixed into the diet on a horizontal roller drum mixed and administered to groups of chicks one day prior to infection, leaving some groups as untreated controls. […]\n(§2) The amount of damage, marked by lesions in the caecal walls was investigated in those chicks that died during the course of the experiment, and in those sacrificed on the final day of administration, and compared with the untreated controls as a basis for the determination of therapeutic activity. In addition the mortality rate and the percentage weight gains in the various groups were assessed. […]"}, "[1]": {"system": "Pseudomonas aeruginosa CN 200", "assay": "testing discs on standard nutrient medium", "assay_type": "cell-based", "conditions": "Pseudomonas aeruginosa, CN200; read-out: Size of zone in cm (×6 magnification)"}, "[2]": {"system": "Staphylococcus aureus CN 491", "assay": "testing discs on standard nutrient medium", "assay_type": "cell-based", "conditions": "Staphylococcus aureus, CN491; read-out: Size of zone in cm (×6 magnification)"}, "E. tenella": {"system": "E. tenella", "assay": "coccidiosis screening test in chicks, E. tenella", "assay_type": "in vivo, Eimeria tenella", "procedure": "as §1\nGroups of Ranger cockerels, housed in small, heated cages with wire floors situated in enironmentally controlled isolation rooms, were infected orally with sporulated oocysts of the Eimeria spp such as E. tenella or E. acervulina. The appropriate test compound(s), (DMHP, sulphaquinoxaline (SQX) or diaveridine (DV) or any combination of these) were incorporated in a small quantity of specially formulated laboratory ration deficient in Vitamin K (`L.D.4 mash`), as a 1/10 pre-mix, which was then mixed into the diet on a horizontal roller drum mixed and administered to groups of chicks one day prior to infection, leaving some groups as untreated controls. Administration was continued for several days, for example about 8 or 9 days.\nas §2, with “assessed. A marked or definite effect of the administered drug could be recognised even when the mortality rates were similar or identical, since the increase in the weight gains and the reduction of the extension of lesions indicated by the lesion score, is characteristic of an improvement.” for “assessed.”\n4:1 sulphaquinoxaline/diaveridine mixtures at levels of 80/20, 60/15, 40/10 and 20/5 p.p.m. were administered alone and in combination with a wide range of low concentrations of DMHP to the birds.\nThe results of these screening tests are set forth in Table 4 showing the concentration of the various component compounds in parts per million of the bird's diet, the mortality from coccidiosis, the percentage weight gain, the lesion score the oocyst output, and the activity. The caecal lesion index is calculated using a score system where: […]\nIn addition a score of 4 is assigned to any bird that dies of coccidiosis during the experiment. [formula] In the activity column, +++, ++, +, ± and - relate respectively to very high, high, slight, doubtful and nil activity of the test drug against the Eimeria infection."}, "Staphylococcus aureus": {"system": "Staphylococcus aureus", "assay": "M.I.C. in Wellcome Nutrient Agar, 18 hours at 37° C.", "assay_type": "cell-based"}}, "note": "Several values for one entry are separate records, joined by “and”; a condition that tells them apart may be missing. Equal entries are not always repeated."}
{"smiles": "CC1(C)Nc2nc(N)nc(O)c2N=C1CO", "note": "[DMHP, 2-amino-4-hydroxy-6-hydroxymethyl-7,7-dimethyl-7,8-dihydropteridine]", "values": [{"measurement": "Total Oocysts × 10^6 Days 5 & 6", "setting": "E. acervulina; Expt. 8, 5,000,000 oocysts, SQX/DV/DMHP p.p.m: b497-499 -/-/30, 10, 5, b500 10/10/-, b502 10/10/30, b504 10/10/10, b506 10/10/5", "value": "0.0 × 10^6"}, {"measurement": "activity alone against moderate infection with E. acervulina", "setting": "E. acervulina; concentrations of 250 and 90 p.p.m", "value": "active alone"}, {"measurement": "zone of inhibition at 100 µg/disc", "setting": "[1]", "value": 220, "unit": "mm"}, {"measurement": "zone of inhibition at 100 µg/disc", "setting": "[2]", "value": 0, "unit": "mm"}, {"measurement": "Mortality from Coccidiosis", "setting": "E. tenella; Expt. 1, 200,000 oocysts, SQX/DV/DMHP p.p.m in diet: -/-/250, -/-/90, -/-/30, -/-/10, 30/30/-, 30/30/250, 30/30/90, 30/30/30, 30/30/10", "value": "1/5 and 2/5 and 3/5"}, {"measurement": "Mortality from Coccidiosis", "setting": "E. tenella; Expt. 4, 100,000 oocysts, p.p.m SQX/DV/DMHP: b374 10/-/-, b375 -/20/-, b376 -/-/10, b377 10/-/10, b378 -/20/10, b379 10/20/-, b381 10/20/10, b382 20/-/-, b383 -/40/-, b384 -/-/20, b385 20/-/20, b386 -/40/20, b387 20/40/-, b389 20/40/20", "value": "8/10 and 6/10"}, {"measurement": "Mortality from Coccidiossis", "setting": "E. tenella; Expt. 5, 100,000 oocysts, SQX/DV p.p.m with DMHP 40, 20, 10, 5 p.p.m: b409-412 20/20, b413-416 26.7/13.3, b417-420 30/10, b421-424 32/8, b425-428 33.4/6.6, no DMHP: b429 20/20, b430 26.7/13.3, b431 30/10, b432 32/8, b433 33.4/6.6, DMHP alone b434-437 40, 20, 10, 5", "value": "19/20 and 18/20 and 20/20"}, {"measurement": "activity alone against infection with E. tenella", "setting": "E. tenella; all levels of concentration tested", "value": "inactive"}, {"measurement": "potentiation of the activity of diaveridine/sulphaquinoxaline mixtures", "setting": "E. tenella; in many cases by as much as", "value": "3 to 4", "unit": "fold"}, {"measurement": "Sulphamethoxazole increase in Activity", "setting": "Staphylococcus aureus; Conc. of DMHP 3.1 μg/ml", "value": 1, "unit": "×"}, {"measurement": "Trimethoprim in the Presence of × 20 sulphamethoxazol increase in Activity", "setting": "Staphylococcus aureus; Conc. of DMHP 3.1 μg/ml", "value": 10, "unit": "×"}, {"measurement": "Trimethoprim increase in Activity", "setting": "Staphylococcus aureus; Conc. of DMHP 3.1 μg/ml", "value": 10, "unit": "×"}, {"measurement": "Sulphamethoxazole increase in Activity", "setting": "Staphylococcus aureus; Conc. of DMHP 6.2 μg/ml", "value": 10, "unit": "×"}, {"measurement": "Trimethoprim in the Presence of × 20 sulphamethoxazol increase in Activity", "setting": "Staphylococcus aureus; Conc. of DMHP 6.2 μg/ml", "value": 30, "unit": "×"}, {"measurement": "Trimethoprim increase in Activity", "setting": "Staphylococcus aureus; Conc. of DMHP 6.2 μg/ml", "value": 30, "unit": "×"}, {"measurement": "Sulphamethoxazole increase in Activity", "setting": "Staphylococcus aureus; Conc. of DMHP 25 μg/ml", "value": 100, "unit": "×"}, {"measurement": "Trimethoprim in the Presence of × 20 sulphamethoxazol increase in Activity", "setting": "Staphylococcus aureus; Conc. of DMHP 25 μg/ml", "value": "> 300", "unit": "×"}, {"measurement": "Trimethoprim increase in Activity", "setting": "Staphylococcus aureus; Conc. of DMHP 25 μg/ml", "value": 300, "unit": "×"}]}
